Laboratory results taken from US10195189B2, “2-phenethenyltetrahydro isoquinolines useful as anti-HIV compounds” (priority 2014, dated 2019).

System: HIV-1 NL4-3 viral clone expressing Renilla luciferase
Assay: microbe, parasite or virus in culture
Assay type: cell-based
Conditions: Human immunodeficiency virus 1, NL43, MT2, 96 h
Procedure: Protocol for MT-2 Spread Assay
The present assay was used to screen candidate antiviral compounds by quantification of virus spread and production over several rounds of infection in vitro. MT-2, a HIV-1 permissive human T-cell line, was seeded in microtiter plates and was simultaneously treated with serially diluted compound and inoculated with a HIV-1 NL4-3 viral clone engineered to express Renilla luciferase in place of Net Following treatment, the culture was incubated for 96 hours. After the incubation, media was collected and used to estimate relative infectivity on the indicator cell line, TZM-bl. Additionally, viral spread was quantified by measuring luciferase activity via a commercially available luciferase substrate. In parallel, MT-2 cells were seeded and inoculated with mock virus in the presence of serially diluted compound. Compound toxicity was quantified 96 hours after treatment with AlamarBlue.
MT-2 (NIH Aids reagent program 237) cells were grown and maintained in an incubator at 37° C. with 5% CO2 using a basal medium of RPMI-1640 supplemented with 10% FBS. Cells were seeded in 100 μl at 2×10^4 cells/well in white walled 96-well microtiter plates. Candidate compounds were 3-fold serially diluted in the appropriate solvent. Solvent without compound was used as a no drug reference. Cells were inoculated at a multiplicity of 0.027 with an HIV-1 NL4-3 virus stock engineered to express Renilla luciferase in place of Net Diluted virus stock was first added to serially diluted compound. Compound and virus were delivered to cells in an equal volume (100 μl) and treated cultures were returned to the incubator for 96 hours. In parallel, plates for cytotoxicity estimates were prepared in the same way except cells were plated in clear walled 96-well microtiter plates and were mock infected.
At 96 hours post infection, 100 μl virus containing culture supernatant was collected from the treated and infected cultures and serially diluted in DMEM supplemented with 10% FBS, 1% sodium pyruvate, and 20 μg/ml DEAE dextran. One day prior, TZM-bl (ATCC PTA-5659) were cultured in basal medium of DMEM supplemented with 10% FBS and 1% sodium pyruvate and seeded at 7.5×10^3 cells/well in black walled 96-well microtiter plates. Diluted virus containing culture supernatant was transferred to TZM-bl cultures and incubated for 48 hours at 37° C. with 5% CO2. Infected TZM-bl cultures were fixed for 5 minutes with a 1% formaldehyde/0.2% gluteraldehyde/PBS solution then washed three times with PBS. Fixed cultures were incubated at 37° C. for 25 minutes with a 200 μg/ml MUG (4-Methylumbelliferyl β-D-[…])/DMEM solution. The reaction was stopped with an equal volume of 1M sodium carbonate and read at 360, 449 nm on fluorescence plate reader (Biotek).
At 96 hours post infection, 100 μl of culture supernatant was removed from the treated and infected cultures and EnduRen live cell substrate (Promega) was added at a final concentration 1.3 μg/ml. Cells were incubated for 1.5 hours at 37° C. with 5% CO2 then read on a luminescence plate reader (Biotek).
For all assays, data was imported into Accelrys Assay Explorer 3.3. In Assay Explorer, % inhibition (antiviral or cytotoxicity) was calculated using the solvent control as a reference by the following equation: 1−(SignalCompound/SignalReference). The % Inhibition and compound concentration data was fitted using the following 4-parameter logistic model (Assay Explorer model 42):
[formula] where X is compound concentration, Y is % inhibition, D is the maximum % Inhibition (constrained to 100%), C is IC50 value or inflection point, B is the hill slope, and A is the minimum % inhibition (constrained to 0%). The IC50 value is reported as the EC50 or CC50 depending on the assay endpoint. EC50 represents the effective concentration at which virus replication is inhibited by 50 percent. CC50 represents the concentration that results in the death of 50 percent of the host cells. […]

Compound | EC50 [nM]
COc1cc2c(cc1OCc1ccccc1)CCNC2/C=C/c1ccc(-n2cncn2)cc1 (stereo not drawn) [DT, 6-(Benzyloxy)-7-methoxy-1-[(E)-2-[4-(1H-1,2,4-triazol-1-yl)phenyl]ethenyl]-1,2,3,4-tetrahydroisoquinoline] | 157
COc1ccc(/C=C/C2NCCc3cc(OCc4ccccc4)c(OC)cc32)cc1CN1CCCCC1 (stereo not drawn) [EM, 6-Benzyloxy-7-methoxy-1-[(E)-2-[4-methoxy-3-(1-piperidylmethyl)phenyl]vinyl]-1,2,3,4-tetrahydroisoquinoline] | 320
COc1cccc(/C=C/C2NCCc3cc(OCc4ccccc4)c(OC)cc32)c1 (stereo not drawn) [EJ, 6-Benzyloxy-7-methoxy-1-[(E)-2-(3-methoxyphenyl)vinyl]-1,2,3,4-tetrahydroisoquinoline] | 2980
COc1cc2c(cc1OCc1ccccc1)CCNC2/C=C/c1cc2c(cc1C)OCCC2 (stereo not drawn) [CE, 6-Benzyloxy-7-methoxy-1-[(E)-2-(7-methylchroman-6-yl)vinyl]-1,2,3,4-tetrahydroisoquinoline] | 125
COc1cc2c(cc1OCc1ccccc1)CCNC2/C=C/c1cccc(OCc2ccccc2)c1 (stereo not drawn) [BK, 6-Benzyloxy-1-[(E)-2-(3-benzyloxyphenyl)vinyl]-7-methoxy-1,2,3,4-tetrahydroisoquinoline] | 260
COc1cc2c(cc1OCc1ccccc1)CCNC2/C=C/c1cc2c(cc1C)OCO2 (stereo not drawn) [BB, 6-Benzyloxy-7-methoxy-1-[(E)-2-(6-methyl-1,3-benzodioxol-5-yl)vinyl]-1,2,3,4-tetrahydroisoquinoline] | 54.4
COc1cc(C)c(/C=C/C2c3cc(OC)c(OCc4ccccc4)cc3CCN2C(=O)NC(C)(C)C)cc1OCc1ccccc1 (stereo not drawn) [Example O, 6-benzyloxy-1-[(E)-2-(5-benzyloxy-4-methoxy-2-methyl-phenyl)vinyl]-N-tert-butyl-7-methoxy-3,4-dihydro-1H-isoquinoline-2-carboxamide] | 2010
COc1cc2c(cc1OCc1ccccc1)CCNC2/C=C/c1c(C)ccc2c1OCCC2 (stereo not drawn) [CC, 6-Benzyloxy-7-methoxy-1-[(E)-2-(7-methylchroman-8-yl)vinyl]-1,2,3,4-tetrahydroisoquinoline] | 1180
COc1cc2c(cc1OCc1ccccc1)CCNC2/C=C/c1ccccc1N(C)C (stereo not drawn) [DC, (E)-2-(2-(6-(benzyloxy)-methoxy-1,2,3,4-tetrahydroisoquinolin-1-yl)vinyl)-N,N-dimethylamine] | 830
COc1cc(C)c(/C=C/C2c3cc(OC)c(OCc4ccccc4)cc3CCN2C(=O)c2ccncc2)cc1OCc1ccccc1 (stereo not drawn) [Example U, [6-benzyloxy-1-[(E)-2-(5-benzyloxy-4-methoxy-2-methyl-phenyl)vinyl]-7-methoxy-3,4-dihydro-1H-isoquinolin-2-yl]-(4-pyridyl)methanone] | 870
COc1cc2c(cc1OCc1ccccc1)CCNC2/C=C/c1cc(OC(F)(F)F)ccc1C (stereo not drawn) [BH, 6-Benzyloxy-7-methoxy-1-[(E)-2-[2-methyl-5-(trifluoromethoxy)phenyl]vinyl]-1,2,3,4-tetrahydroisoquinoline] | 1930
COc1cc2c(cc1OCc1ccccc1)CCNC2/C=C/c1ccc(OC)c2occc12 (stereo not drawn) [Example AN, 6-Benzyloxy-7-methoxy-1-[(E)-2-(7-methoxybenzofuran-4-yl)vinyl]-1,2,3,4-tetrahydroisoquinoline] | 140
COc1cc2c(cc1OCc1ccccc1)CCNC2/C=C/c1cn(C)c2ncccc12 (stereo not drawn) [DP] | 15
COc1cc2c(cc1OCc1ccccc1)CCNC2/C=C/c1ccc(F)cc1C (stereo not drawn) [Example X, 6-benzyloxy-1-[(E)-2-(4-fluoro-2-methyl-phenyl)vinyl]-7-methoxy-1,2,3,4-tetrahydroisoquinoline] | 620
COc1cc2c(cc1OCc1ccccc1)CCNC2/C=C/c1c[nH]c2ccccc12 (stereo not drawn) [CJ, 6-Benzyloxy-1-[(E)-2-(1H-indol-3-yl)vinyl]-7-methoxy-1,2,3,4-tetrahydroisoquinoline] | 470
COc1cc(F)c(/C=C/C2NCCc3cc(OCc4ccccc4)c(OC)cc32)cc1OC (stereo not drawn) [BP, 6-Benzyloxy-1-[(E)-2-(2-fluoro-4,5-dimethoxy-phenyl)vinyl]-7-methoxy-1,2,3,4-tetrahydroisoquinoline] | 2030
COc1cc2c(cc1OCc1ccccc1)CCNC2/C=C/c1cc2ccccc2s1 (stereo not drawn) [DU, 1-[(E)-2-(1-Benzothiophen-2-yl)ethenyl]-6-(benzyloxy)-7-methoxy-1,2,3,4-tetrahydroisoquinoline] | 10100
COc1cc(C)c(/C=C/C2NCCc3cc(OCc4ccccc4)c(OC)cc32)cc1OCCCCN=[N+]=[N-] (stereo not drawn) [CD, 1-[(E)-2-[5-(4-azidobutoxy)-4-methoxy-2-methyl-phenyl]vinyl]-6-benzyloxy-7-methoxy-1,2,3,4-tetrahydroisoquinoline] | 88
COc1cc(F)c(/C=C/C2NCCc3cc(OCc4ccccc4)c(OC)cc32)c(F)c1 (stereo not drawn) [BU, 6-Benzyloxy-1-[(E)-2-(2,6-difluoro-4-methoxy-phenyl)vinyl]-7-methoxy-1,2,3,4-tetrahydroisoquinoline] | 1020
COc1cc2c(cc1OCc1ccccc1)CCNC2/C=C/c1ccc(N(C)C)cc1C (stereo not drawn) [BG, 4-[(E)-2-(6-benzyloxy-7-methoxy-1,2,3,4-tetrahydroisoquinolin-1-yl)vinyl]-N,N,3-trimethyl-aniline] | 1650
COc1cc2c(cc1OCc1ccccc1)CCNC2/C=C/c1ccccc1 (stereo not drawn) [BI, 6-Benzyloxy-7-methoxy-1-[(E)-styryl]-1,2,3,4-tetrahydroisoquinoline] | 2200
COc1cc2c(cc1OCc1ccccc1)CCNC2/C=C/c1scnc1C (stereo not drawn) [DY, 5-[(E)-2-(6-Benzyloxy-7-methoxy-1,2,3,4-tetrahydroisoquinolin-1-yl)vinyl]-4-methyl-thiazole] | 5510
COc1cc2c(cc1OCc1ccccc1)CCNC2/C=C/c1ccc(-n2ccnc2)cc1 (stereo not drawn) [DK, (E)-1-(4-(1H-imidazol-1-yl)styryl)-6-(benzyloxy)-7-methoxy-1,2,3,4-tetrahydroisoquinoline] | 107
COc1cc2c(cc1OCc1ccccc1)CCNC2/C=C/c1ccc2c(c1)CCO2 (stereo not drawn) [BM, 6-Benzyloxy-1-[(E)-2-(2,3-dihydrobenzofuran-5-yl)vinyl]-7-methoxy-1,2,3,4-tetrahydroisoquinoline] | 146
COc1ccc(/C=C/C2NCCc3cc(OCc4ccccc4)c(OC)cc32)cc1C (stereo not drawn) [EI, 6-Benzyloxy-7-methoxy-1-[(E)-2-(4-methoxy-3-methyl-phenyl)vinyl]-1,2,3,4-tetrahydroisoquinoline] | 340
COc1ccc2cc(/C=C/C3NCCc4cc(OCc5ccccc5)c(OC)cc43)ccc2c1 (stereo not drawn) [DI, (E)-6-(benzyloxy)-7-methoxy-1-(2-(6-methoxynaphthalen-2-yl)vinyl)-1,2,3,4-tetrahydroisoquinoline] | 628
COc1cc2c(cc1OCc1ccccc1)CCNC2/C=C/c1ccc2c(c1)CCCO2 (stereo not drawn) [CB, 6-Benzyloxy-1-[(E)-2-chroman-6-ylvinyl]-7-methoxy-1,2,3,4-tetrahydroisoquinoline] | 1550
CCOC(=O)c1ccccc1/C=C/C1NCCc2cc(OCc3ccccc3)c(OC)cc21 (stereo not drawn) [ET, Ethyl 2-[(E)-2-(6-benzyloxy-7-methoxy-1,2,3,4-tetrahydroisoquinolin-1-yl)vinyl]benzoate] | 2480
COc1cc(C)c(/C=C/C2NCCc3cc(OCc4ccccc4)c(OC)cc32)cc1OCc1ccccc1 (stereo not drawn) [AF, 6-benzyloxy-1-[(E)-2-(5-benzyloxy-4-methoxy-2-methyl-phenyl)vinyl]-7-methoxy-1,2,3,4-tetrahydroisoquinoline] | 83
COc1ccc(/C=C/C2c3cc(OC)c(OCc4ccccc4)cc3CCN2C(=O)c2cnccn2)cc1OCc1ccccc1 (stereo not drawn) [Example B, [6-Benzyloxy-1-[(E)-2-(3-benzyloxy-4-methoxy-phenyl)vinyl]-7-methoxy-3,4-dihydro-1H-isoquinolin-2-yl]-pyrazin-2-yl-methanone] | 10000
